Assay results taken from patent publication US4839346A, “Antitumor anthracycline glycosides, intermediates thereof, and composition and use thereof” (priority 1986, dated 1989).
Converted amounts (≈) assume the structure as drawn. Where two headings read alike, the source gives them in different places.

What was measured:
HeLa cells = assay: Cytotoxic activity in vitro, colony inhibition test after 24 hours exposure; format: cell-based; details: Homo sapiens
Method: (§1) Compound IB has been tested in comparison with daunorubicin (DNR) against HeLa and P388 cells in vitro (Table 1).
(§2) Cytotoxic activity of IB in comparison
^+ COLONY INHIBITION TEST AFTER 24 HOURS EXPOSURE TO THE DRUGS.

[1] = In vivo effect against disseminated Gross leukemia in C3H mice; details: mouse, in vivo; iv, mice with disseminated Gross leukemia; read-out: maxima tolerated dose (MxTD)
Method: (§3) EFFECT AGAINST GROSS LEUKEMIA^(A)
(§4) ^(A) EXPERIMENTS WERE PERFORMED IN C3H MICE, INOCULATED WITH 2 .times
(§5) 10^6 LEUKEMIA CELLS I.V.
(§6) ^(B) TREATMENT I.V. ON DAY 1 AFTER TUMOR INOCULUM.
(§7) ^(C) MEDIAN SURVIVAL TIME OF TREATED MICE/MEDIAN SURVIVAL TIME OF
(§8) ^(D) EVALUATED ON THE BASIS OF AUTOPSY FINDINGS.

[2] = system: disseminated Gross leukemia; assay: as above; details: for TOXIC DEATHS: evaluated on the basis of autopsy findings; for T/C %: median survival time treated/controls × 100
Method: as §3, §4, §5, §6, §7, §8

P388 cells = assay: Cytotoxic activity in vitro, cell counting after 48 hours exposure; format: cell-based; details: Mus musculus
Method: as §1, §2
^++ CYTOTOXICITY EVALUATED AFTER 48 HOURS EXPOSURE TO THE DRUGS BY
CELL COUNTING TECHNIQUE.

COc1cccc2c1C(=O)c1c(O)c3c(c(O)c1C2=O)C[C@@](O)(C(C)=O)C[C@@H]3O[C@H]1C[C@H](N)[C@H](O)[C@H](C)O1 [DNR, daunorubicin, reference compound]
IC50 (HeLa cells; 24 h, read-out: ID50): 10.5 ng/mL (≈ 0.0199 µM)
MTD [1]: 15 mg/kg
TOXIC DEATHS ([2]; 10 mg/kg i.v. on day 1): 0/10
T/C % ([2]; 10 mg/kg i.v. on day 1 after tumor inoculum): 150%
TOXIC DEATHS ([2]; 15 mg/kg i.v. on day 1): 0/10
T/C % ([2]; 15 mg/kg i.v. on day 1 after tumor inoculum): 183%
TOXIC DEATHS ([2]; 22.5 mg/kg i.v. on day 1): 2/10
T/C % ([2]; 22.5 mg/kg i.v. on day 1 after tumor inoculum): 217%
IC50 (P388 cells; P388, 48 h, read-out: ID50): 8.4 ng/mL (≈ 0.0159 µM)

COc1cccc2c1C(=O)c1c(O)c3c(c(O)c1C2=O)C[C@@](O)(C(=O)CO)C[C@@H]3O[C@H]1C[C@@H](CN)[C@@H](O)[C@H](C)O1 [IB, 3'-desamino-3'-aminomethyl-3',4'-epi-doxorubicin]
IC50 (HeLa cells; colony inhibition test after 24 hours exposure, read-out: ID50 (the source's name)): 6.4 ng/mL (≈ 0.0115 µM)
MTD [1]: 32.1 mg/kg
TOXIC DEATHS ([2]; 19 mg/kg i.v. on day 1): 0/10
T/C % ([2]; 19 mg/kg i.v. on day 1 after tumor inoculum): 167%
TOXIC DEATHS ([2]; 24.7 mg/kg i.v. on day 1): 0/10
T/C % ([2]; 24.7 mg/kg i.v. on day 1 after tumor inoculum): 183%
TOXIC DEATHS ([2]; 32.11 mg/kg i.v. on day 1): 1/10
T/C % ([2]; 32.11 mg/kg i.v. on day 1 after tumor inoculum): 200%
potency in vivo compared with DNR ([2]; administered iv): less potent than DNR
activity in vivo compared with DNR ([2]; iv, at the maxima tolerated dose (32.11 mg/Kg; DNR MxTD=15 mg/Kg)): more active than DNR
IC50 (P388 cells; P388, cell counting after 48 hours exposure, read-out: ID50 (the source's name)): 10 ng/mL (≈ 0.0179 µM)
